# Molecular target: T1, Ba/F3 cell EGFR Exon20 ins NPH (Homo sapiens, UniProt P00533, INS773NPH)
# T1 construct: expressed in transfected cells; host or cells: Ba/F3
# Assay: Ba/F3 cell proliferation suppression, EGFR Exon20 ins NPH
# Type: cell-based
# Settings: GI50 class; Ba/F3 cell line with NPH inserted at Exon20 of EGFR; 72 hours
# Method in brief: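 Seed 3000–5000 cells/well; after 24 h add compound (12 conc., 0.3 nM–50 um final); incubate 72 h; add CellTiter-Glo, 10 min room temperature; read luminescence; GI50 from % growth vs control, triplicate.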
row,Ba/F3 (NPH) Activity,Structure (SMILES)
1,A (GI50 < 50 nM),"C=CC(=O)Nc1cc(Nc2cc(N3OCC[C@@H]3c3cc(F)ccc3F)ncn2)c(OC)cc1N1CCC(N2CCN(C)[C@H](C)C2)CC1 [compound 851, N-(5-((6-((R)-3-(2,5-difluorophenyl)isoxazolidine-2-yl)pyrimidine-4-yl)amino)-2-(4-((R)-3,4-dimethylpiperazine-1-yl)piperidine-1-yl)-4-methoxyphenyl) acrylamide]"
2,A (GI50 < 50 nM),"C=CC(=O)Nc1cc(Nc2cc(N3OCC[C@@H]3c3cc(F)ccc3F)ncn2)c(OC)cc1-n1ccnc1C [compound 330, N-(5-((6-((R)-3-(2,5-difluorophenyl)isoxazolidine-2-yl)pyrimidine-4-yl)amino)-4-methoxy-2-(2-methyl-1H-imidazole-1-yl)phenyl)acrylamide]"
3,A (GI50 < 50 nM),"C=CC(=O)Nc1cc(Nc2cc(N3OCC[C@@H]3Cc3ccccc3)ncn2)c(OC)cc1N1CCC(N2CCN(C)CC2)CC1 [compound 963, N-(5-((6-((S)-3-benzylisoxazolidine-2-yl)pyrimidine-4-yl)amino)-4-methoxy-2-(4-(4-methylpiperazine-1-yl)piperidine-1-yl)phenyl)acrylamide]"
4,A (GI50 < 50 nM),"C=CC(=O)Nc1cc(Nc2cc(N3OCC[C@@H]3c3cccc(F)c3F)ncn2)c(OC)cc1N1CC2CCC(C1)O2 [compound 887, N-(2-(8-oxa-3-azabicyclo[3.2.1]octan-3-yl)-5-((6-((R)-3-(2,3-difluorophenyl)isoxazolidine-2-yl)pyrimidine-4-yl)amino)-4-methoxyphenyl) acrylamide]"
5,A (GI50 < 50 nM),"C=CC(=O)Nc1cc(Nc2cc(N3OCC[C@@H]3c3ccc(F)c(Cl)c3F)ncn2)c(OC)cc1N1CCC(N2C[C@@H]3C[C@H]2CO3)CC1 [compound 637, N-(2-(4-((1S,4S)-2-oxa-5-azabicyclo[2.2.1]heptane-5-yl)piperidine-1-yl)-5-((6-((R)-3-(3-chloro-2,4-difluorophenyl)isoxazolidine-2-yl)pyrimidine-4-yl)amino)-4-methoxyphenyl) acrylamide]"
6,A (GI50 < 50 nM),"C=CC(=O)Nc1cc(Nc2cc(N3OCC[C@@H]3c3cccc(C(F)(F)F)c3)ncn2)c(OC)cc1N1CCC(N2CCOCC2)CC1 [compound 504, N-(4-methoxy-2-(4-morpholinopiperidine-1-yl)-5-((6-((R)-3-(3-(trifluoromethyl)phenyl)isoxazolidine-2-yl)pyrimidine-4-yl)amino)phenyl)acrylamide]"
7,A (GI50 < 50 nM),"C=CC(=O)Nc1cc(Nc2cc(N3OCC[C@@H]3c3ccc(F)cc3F)ncn2)c(OC)cc1N1CCC(N2C[C@H]3C[C@@H]2CO3)CC1 [compound 423, N-(2-(4-((1R,4R)-2-oxa-5-azabicyclo [2.2.1]heptane-5-yl)piperidine-1-yl)-5-((6-((R)-3-(2,4-difluorophenyl)isoxazolidine-2-yl)pyrimidine-4-yl)amino)-4-methoxyphenyl) acrylamide]"
8,B (50 nM ≤ GI50 < 500 nM),"C=CC(=O)Nc1cc(Nc2cc(N3OCC[C@@H]3c3ccc(F)c(Cl)c3F)ncn2)c(OC)cc1N1CCO[C@H](C)C1 [compound 666, N-(5-((6-((R)-3-(3-chloro-2,4-difluorophenyl)isoxazolidine-2-yl)pyrimidine-4-yl)amino)-4-methoxy-2-((R)-2-methylmorpholino)phenyl)acrylamide]"
9,B (50 nM ≤ GI50 < 500 nM),"C=CC(=O)Nc1cc(Nc2cc(N3OCC[C@@H]3c3ccc(F)c(Cl)c3F)ncn2)c(OC)cc1N1CCC(N2CCN(C(C)C)CC2)CC1 [compound 668, N-(5-((6-((R)-3-(3-chloro-2,4-difluorophenyl)isoxazolidine-2-yl)pyrimidine-4-yl)amino)-2-(4-(4-isopropylpiperazine-1-yl)piperidine-1-yl)-4-methoxyphenyl) acrylamide]"

# Second part, the compound before the results:
row,Structure (SMILES),Ba/F3 (NPH) Activity
1,"C=CC(=O)Nc1cc(Nc2cc(N3OCC[C@@H]3Cc3cccc(Cl)c3OC)ncn2)c(OC)cc1N1CCC(N2C[C@H]3C[C@@H]2CO3)CC1 [compound 1055, N-(2-(4-((1R,4R)-2-oxa-5-azabicyclo [2.2.1]heptane-5-yl)piperidine-1-yl)-5-((6-((S)-3-(3-chloro-2-methoxybenzyl)isoxazolidine-2-yl)pyrimidine-4-yl)amino)-4-methoxyphenyl) acrylamide]",A (GI50 < 50 nM)
2,"C=CC(=O)Nc1cc(Nc2cc(N3OCC[C@@H]3Cc3cccc(Cl)c3Cl)ncn2)c(OC)cc1N1CCC(N2CCN(C(C)C)CC2)CC1 [compound 1015, N-(5-((6-((S)-3-(2,3-dichlorobenzyl)isoxazolidine-2-yl)pyrimidine-4-yl)amino)-2-(4-(4-isopropylpiperazine-1-yl)piperidine-1-yl)-4-methoxyphenyl) acrylamide]",A (GI50 < 50 nM)
3,"C=CC(=O)Nc1cc(Nc2cc(N3OCC[C@@H]3c3cc(F)cc(Cl)c3)ncn2)c(OC)cc1N1CCC(N2CCN(C3CC3)[C@@H](C)C2)CC1 [Example 157, N-(5-((6-((R)-3-(3-chloro-5-fluorophenyl)isoxazolidine-2-yl)pyrimidine-4-yl)amino)-2-(4-((S)-4-cyclopropyl-3-methylpiperazine-1-yl)piperidine-1-yl)-4-methoxyphenyl) acrylamide]",A (GI50 < 50 nM)
4,"C=CC(=O)Nc1cc(Nc2cc(N3OCC[C@@H]3c3cccc(C(F)(F)F)c3)ncn2)c(OC)cc1N1CCC(N2CCN(C)CC2)CC1 [compound 453, N-(4-methoxy-2-(4-(4-methylpiperazine-1-yl)piperidine-1-yl)-5-((6-((R)-3-(3-(trifluoromethyl)phenyl)isoxazolidine-2-yl)pyrimidine-4-yl)amino)phenyl)acrylamide]",A (GI50 < 50 nM)
5,"C=CC(=O)Nc1cc(Nc2cc(N3OCC[C@@H]3c3ccc(Cl)cc3)ncn2)c(OC)cc1N1CC[C@@H](N(C)C)C1 [compound 695, N-(5-((6-((R)-3-(4-chlorophenyl)isoxazolidine-2-yl)pyrimidine-4-yl)amino)-2-((R)-3-(dimethylamino)pyrolidine-1-yl)-4-methoxyphenyl) acrylamide]",B (50 nM ≤ GI50 < 500 nM)
6,"C=CC(=O)Nc1cc(Nc2cc(N3OCC[C@@H]3Cc3cccnc3)ncn2)c(OC)cc1N1CCC(N2CCN(C3CC3)[C@H](C)C2)CC1 [compound 1056, N-(2-(4-((R)-4-cyclopropyl-3-methylpiperazine-1-yl)piperidine-1-yl)-4-methoxy-5-((6-((S)-3-(pyridine-3-ylmethyl)isoxazolidine-2-yl)pyrimidine-4-yl)amino)phenyl)acrylamide]",B (50 nM ≤ GI50 < 500 nM)
7,"C=C(F)C(=O)Nc1cc(Nc2cc(N3OCC[C@@H]3c3cc(F)cc(F)c3)ncn2)c(OC)cc1N1CCC(N2CCN(C3CC3)CC2)CC1 [Example 120, N-(2-(4-(4-cyclopropylpiperazine-1-yl)piperidine-1-yl)-5-((6-((R)-3-(3,5-difluorophenyl)isoxazolidine-2-yl)pyrimidine-4-yl)amino)-4-methoxyphenyl)-2-fluoroacrylamide]",C (500 nM ≤ GI50 < 5000 nM)
8,"C=CC(=O)Nc1cc(Nc2cc(N3OCC[C@@H]3c3cccc(F)c3Cl)ncn2)c(OC)cc1N1CCC(N2CCN(C3CC3)CC2)CC1 [Example 164, N-(5-((6-((R)-3-(2-chloro-3-fluorophenyl)isoxazolidine-2-yl)pyrimidine-4-yl)amino)-2-(4-(4-cyclopropylpiperazine-1-yl)piperidine-1-yl)-4-methoxyphenyl) acrylamide]",A (GI50 < 50 nM)
9,"C=CC(=O)Nc1cc(Nc2cc(N3OCC[C@@H]3c3cccc(Cl)c3F)ncn2)c(OC)cc1N1CCC(N2CCOCC2)CC1 [compound 788, N-(5-((6-((R)-3-(3-chloro-2-fluorophenyl)isoxazolidine-2-yl)pyrimidine-4-yl)amino)-4-methoxy-2-(4-morpholinopiperidine-1-yl)phenyl)acrylamide]",A (GI50 < 50 nM)
10,"C=CC(=O)Nc1cc(Nc2cc(N3OCC[C@@H]3c3cccc(F)c3)ncn2)c(OC)cc1N1CCC(N2C[C@@H]3C[C@H]2CN3C)CC1 [compound 837, N-(5-((6-((R)-3-(3-fluorophenyl)isoxazolidine-2-yl)pyrimidine-4-yl)amino)-4-methoxy-2-(4-((1S, 4S)-5-methyl-2,5-diazabicyclo[2.2.1]heptane-2-yl)piperidine-1-yl)phenyl)acrylamide]",A (GI50 < 50 nM)
11,"C=CC(=O)Nc1cc(Nc2cc(N3OCC[C@@H]3c3ccc(Cl)c(F)c3)ncn2)c(OC)cc1N1C[C@H]2C[C@@H]1CO2 [compound 863, N-(2-((1R,4R)-2-oxa-5-azabicyclo [2.2.1]heptane-5-yl)-5-((6-((R)-3-(4-chloro-3-fluorophenyl)isoxazolidine-2-yl)pyrimidine-4-yl)amino)-4-methoxyphenyl) acrylamide]",A (GI50 < 50 nM)
12,"C=CC(=O)Nc1cc(Nc2cc(N3OCC[C@@H]3c3ccc(F)c(Cl)c3)ncn2)c(OC)cc1N1CCC(N2CCC3(CC2)CC3)CC1 [compound 872, N-(2-(4-(6-azaspiro [2.5]octan-6-yl)piperidine-1-yl)-5-((6-((R)-3-(3-chloro-4-fluorophenyl)isoxazolidine-2-yl)pyrimidine-4-yl)amino)-4-methoxyphenyl) acrylamide]",A (GI50 < 50 nM)
13,"C=CC(=O)Nc1cc(Nc2cc(N3OCC[C@@H]3c3cccc(C#N)c3)ncn2)c(OC)cc1N1CCC(N2C[C@@H]3C[C@H]2CO3)CC1 [compound 493, N-(2-(4-((1S,4S)-2-oxa-5-azabicyclo[2.2.1]heptane-5-yl)piperidine-1-yl)-5-((6-((R)-3-(3-cyanophenyl)isoxazolidine-2-yl)pyrimidine-4-yl)amino)-4-methoxyphenyl) acrylamide]",B (50 nM ≤ GI50 < 500 nM)

# — US12157730B2, “Heteroaryl derivative, method for producing same, and pharmaceutical composition comprising same as effective component” (VORONOI INC., priority 2019, dated 2024)
